Experimental data from the NIST ThermoML archive (doi:10.1016/j.jct.2006.05.009).
± gives the expanded uncertainty stated by the source.

What was measured:
[1] = Molar enthalpy of transition or fusion
[2] = molar heat capacity at constant pressure; conditions: 101.33 kPa, Crystal 2

Cn1c(=O)c2c(ncn2C)n(C)c1=O [caffeine]
Conditions | Triple point temperature [K]
Crystal 1 | 509 ± 0.8
Crystal 2 | 413.39 ± 0.77

Conditions | Molar enthalpy of transition or fusion [kcal/mol] | molar heat capacity at constant pressure [J/K/mol]
[1], Crystal 1 | 4.75 ± 0.22 | –
[1], Crystal 2 | 0.82 ± 0.139 | –
[2], 80.83 K | – | 98.31 ± 1.8
[2], 84.15 K | – | 101.95 ± 1.8
[2], 87.22 K | – | 104.62 ± 1.9
[2], 90.15 K | – | 106.27 ± 1.9
[2], 93.05 K | – | 109.02 ± 1.9
[2], 95.91 K | – | 112.23 ± 1.9
[2], 98.73 K | – | 116.53 ± 2
[2], 101.49 K | – | 119.06 ± 2
[2], 104.21 K | – | 121.47 ± 2.1
[2], 106.88 K | – | 123.99 ± 2.1
[2], 109.98 K | – | 125.77 ± 2.1
[2], 113.03 K | – | 127.49 ± 2.1
[2], 115.96 K | – | 130.48 ± 2.2
[2], 118.81 K | – | 132.67 ± 2.2
[2], 121.58 K | – | 134.84 ± 2.2
[2], 124.27 K | – | 136.76 ± 2.2
[2], 126.89 K | – | 139.36 ± 2.3
[2], 129.43 K | – | 140.97 ± 2.3
[2], 131.92 K | – | 142.97 ± 2.3
[2], 134.34 K | – | 144.92 ± 2.3
[2], 136.69 K | – | 145.99 ± 2.4
[2], 138.99 K | – | 148.53 ± 2.4
[2], 141.24 K | – | 149.98 ± 2.4
[2], 143.42 K | – | 150.47 ± 2.4
[2], 145.52 K | – | 151.98 ± 2.4
[2], 148 K | – | 155.83 ± 2.5
[2], 150.06 K | – | 156.99 ± 2.5
[2], 152.08 K | – | 157.88 ± 2.5
[2], 154.08 K | – | 159.38 ± 2.5
[2], 156.06 K | – | 160.61 ± 2.5
[2], 158.01 K | – | 161.82 ± 2.5
[2], 159.95 K | – | 162.55 ± 2.6
[2], 161.87 K | – | 163.14 ± 2.6
[2], 163.77 K | – | 164.64 ± 2.6
[2], 165.79 K | – | 164.91 ± 2.6
[2], 168.47 K | – | 166.4 ± 2.6
[2], 171.41 K | – | 166.83 ± 2.6
[2], 174.32 K | – | 167.9 ± 2.6
[2], 177.21 K | – | 169.06 ± 2.6
[2], 180.03 K | – | 169.58 ± 2.6
[2], 182.8 K | – | 171.5 ± 2.7
[2], 185.57 K | – | 172.7 ± 2.7
[2], 188.3 K | – | 174.64 ± 2.7
[2], 191 K | – | 176.3 ± 2.7
[2], 193.71 K | – | 178.38 ± 2.7
[2], 196.39 K | – | 179.3 ± 2.8
[2], 199.05 K | – | 180.41 ± 2.8
[2], 201.7 K | – | 181.59 ± 2.8
[2], 204.31 K | – | 182.99 ± 2.8
[2], 206.91 K | – | 184.79 ± 2.8
[2], 209.47 K | – | 186.12 ± 2.8
[2], 212.08 K | – | 187.01 ± 2.8
[2], 214.76 K | – | 189.97 ± 2.9
[2], 217.47 K | – | 191.2 ± 2.9
[2], 220.2 K | – | 192.68 ± 2.9
[2], 222.95 K | – | 194.21 ± 2.9
[2], 226.26 K | – | 195.06 ± 2.9
[2], 230.04 K | – | 197.34 ± 3
[2], 233.76 K | – | 198.99 ± 3
[2], 237.43 K | – | 200.1 ± 3
[2], 241.09 K | – | 202.07 ± 3
[2], 244.7 K | – | 202.6 ± 3
[2], 248.28 K | – | 203.14 ± 3
[2], 251.82 K | – | 203.17 ± 3
[2], 255.32 K | – | 204.06 ± 3.1
[2], 258.78 K | – | 205.75 ± 3.1
[2], 259.39 K | – | 207.72 ± 3.1
[2], 262.25 K | – | 207.77 ± 3.1
[2], 265.07 K | – | 209.13 ± 3.1
[2], 267.83 K | – | 210.94 ± 3.1
[2], 270.58 K | – | 212.28 ± 3.2
[2], 273.31 K | – | 213.56 ± 3.2
[2], 276.04 K | – | 215.35 ± 3.2
[2], 278.76 K | – | 217.05 ± 3.2
[2], 281.49 K | – | 217.99 ± 3.2
[2], 284.22 K | – | 220.07 ± 3.2
[2], 286.92 K | – | 223.22 ± 3.3
[2], 289.58 K | – | 223.75 ± 3.3
[2], 292.23 K | – | 225.69 ± 3.3
[2], 294.87 K | – | 226.47 ± 3.3
[2], 297.52 K | – | 227.12 ± 3.3
[2], 300.14 K | – | 227.17 ± 3.3
[2], 302.75 K | – | 228.98 ± 3.4
[2], 305.33 K | – | 230.29 ± 3.4
[2], 307.91 K | – | 230.71 ± 3.4
[2], 310.51 K | – | 233.27 ± 3.4
[2], 313.09 K | – | 234.23 ± 3.4
[2], 315.65 K | – | 234.61 ± 3.4
[2], 318.19 K | – | 235.23 ± 3.4
[2], 320.86 K | – | 237.37 ± 3.5
[2], 323.42 K | – | 238.29 ± 3.5
[2], 325.99 K | – | 238.92 ± 3.5
[2], 328.63 K | – | 240.12 ± 3.5
[2], 331.31 K | – | 243.07 ± 3.5
[2], 333.96 K | – | 245.08 ± 3.5
[2], 336.61 K | – | 246.31 ± 3.6
[2], 339.22 K | – | 248.21 ± 3.6
[2], 341.76 K | – | 249.29 ± 3.6
[2], 344.27 K | – | 251.55 ± 3.6
[2], 346.83 K | – | 253.2 ± 3.6
[2], 349.18 K | – | 254.04 ± 3.7
[2], 351.69 K | – | 255.21 ± 3.7
[2], 354.36 K | – | 256.94 ± 3.7
[2], 357.01 K | – | 258.67 ± 3.7
[2], 359.66 K | – | 260.51 ± 3.7
[2], 362.27 K | – | 261.86 ± 3.7
[2], 364.86 K | – | 262.9 ± 3.8
[2], 367.44 K | – | 264.99 ± 3.8
[2], 369.95 K | – | 266.24 ± 3.8
[2], 372.45 K | – | 266.46 ± 3.8
[2], 374.91 K | – | 267.26 ± 3.8
[2], 377.39 K | – | 269.44 ± 3.8
[2], 379.84 K | – | 270.33 ± 3.8
[2], 382.28 K | – | 271.84 ± 3.9
[2], 384.69 K | – | 272.71 ± 3.9
[2], 387.08 K | – | 274.88 ± 3.9
